Measurements published in ChEMBL document CHEMBL4351016 (Eur J Med Chem, 2019).
One block for each compound: values may come before it. Active and inactive are the calls of the source. The rule behind the calls is not given here.

Columns and labels:
CWR22R [1] = test: Antiproliferative activity against AR-positive human 22Rv1 cells harboring ARE14 construct assessed as growth inhibition after 72 hrs by resazurin dye based fluorescence assay; format: functional; details: 22Rv1, 72 h
LNCaP C4-2 [2] = test: Antiproliferative activity against AR-positive human C4-2 cells assessed as growth inhibition after 72 hrs by resazurin dye based fluorescence assay; format: functional; details: LNCaP C4-2, 72 h
VCaP [3] = test: Antiproliferative activity against AR-positive human VCaP cells assessed as growth inhibition after 72 hrs by resazurin dye based fluorescence assay; format: functional
PC-3 [4] = test: Antiproliferative activity against AR-negative human PC3 cells assessed as growth inhibition after 72 hrs by resazurin dye based fluorescence assay; format: functional; details: PC-3, 72 h
CWR22R [5] = test: Antiproliferative activity against AR-positive human 22Rv1 cells harboring ARE14 construct assessed as cell viability at 40 uM after 72 hrs by resazurin dye based fluorescence assay; format: functional; details: 22Rv1, 72 h, read-out: Activity
LNCaP C4-2 [6] = test: Antiproliferative activity against AR-positive human C4-2 cells assessed as cell viability at 40 uM after 72 hrs by resazurin dye based fluorescence assay; format: functional; details: LNCaP C4-2, 72 h, read-out: Activity
VCaP [7] = test: Antiproliferative activity against AR-positive human VCaP cells assessed as cell viability at 40 uM after 72 hrs by resazurin dye based fluorescence assay; format: functional; details: read-out: Activity
PC-3 [8] = test: Antiproliferative activity against AR-negative human PC3 cells assessed as cell viability at 40 uM after 72 hrs by resazurin dye based fluorescence assay; format: functional; details: PC-3, 72 h, read-out: Activity
[9] = target: T1, Androgen receptor (Homo sapiens) (UniProt P10275); test: Inhibition of AR transcriptional activity in AR-positive human 22Rv1 cells harboring ARE14 construct assessed as downregulation of NKX3.1 protein expression at 5 uM after 24 hrs by immunoblot analysis
T1 sequence (whole entry): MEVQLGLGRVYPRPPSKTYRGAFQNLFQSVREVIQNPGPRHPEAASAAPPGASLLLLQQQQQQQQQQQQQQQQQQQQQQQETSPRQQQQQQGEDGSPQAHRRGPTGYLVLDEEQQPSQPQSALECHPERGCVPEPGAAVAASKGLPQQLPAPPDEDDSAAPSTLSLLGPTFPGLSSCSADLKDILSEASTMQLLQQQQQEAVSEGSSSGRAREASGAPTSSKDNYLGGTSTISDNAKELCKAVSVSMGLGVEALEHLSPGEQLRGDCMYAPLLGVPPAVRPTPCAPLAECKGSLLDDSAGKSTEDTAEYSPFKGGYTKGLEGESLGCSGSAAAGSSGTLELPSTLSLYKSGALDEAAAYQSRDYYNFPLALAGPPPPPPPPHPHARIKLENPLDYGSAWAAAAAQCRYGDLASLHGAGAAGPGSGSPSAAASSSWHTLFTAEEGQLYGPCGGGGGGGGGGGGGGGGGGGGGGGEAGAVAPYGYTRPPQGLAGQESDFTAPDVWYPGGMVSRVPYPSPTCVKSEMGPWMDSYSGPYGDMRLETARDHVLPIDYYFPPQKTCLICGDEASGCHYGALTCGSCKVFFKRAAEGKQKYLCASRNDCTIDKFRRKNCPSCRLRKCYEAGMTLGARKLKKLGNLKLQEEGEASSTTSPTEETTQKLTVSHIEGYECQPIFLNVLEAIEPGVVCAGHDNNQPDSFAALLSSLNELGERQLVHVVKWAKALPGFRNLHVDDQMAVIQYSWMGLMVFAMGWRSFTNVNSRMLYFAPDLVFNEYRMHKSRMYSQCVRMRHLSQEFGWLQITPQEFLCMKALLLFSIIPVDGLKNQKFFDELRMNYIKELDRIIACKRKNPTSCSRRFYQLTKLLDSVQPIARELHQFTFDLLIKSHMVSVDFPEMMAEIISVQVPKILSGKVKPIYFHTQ

[10] = target: T1, Androgen receptor (Homo sapiens); test: (§1) Inhibition of R1881 induced-AR transcriptional activity in AR-positive human 22Rv1 cells harboring ARE14 construct after 24 hrs by luciferase assay
Androgen receptor = target: T2, Androgen receptor (Homo sapiens, UniProt P10275); test: as §1
T2 sequence (P10275 whole entry): T1 sequence (whole entry)

[11] = target: T1, Androgen receptor (Homo sapiens); test: Inhibition of R1881 induced-AR transcriptional activity in AR-positive human 22Rv1 cells harboring ARE14 construct assessed as suppression of NKX3.1 expression at 5 uM after 24 hrs by immunoblot analysis
[12] = target: T1, Androgen receptor (Homo sapiens); test: Inhibition of R1881 induced-AR transcriptional activity in AR-positive human 22Rv1 cells harboring ARE14 construct assessed as suppression of PSA expression at 5 uM after 24 hrs by immunoblot analysis
CWR22R [13] = test: Inhibition of colony formation in AR-positive human 22Rv1 cells harboring ARE14 construct at 0.625 to 10 uM incubated for 10 days by crystal violet staining based analysis; format: functional, cell-based
[14] = target: T1, Androgen receptor (Homo sapiens); test: Inhibition of R1881-stimulated AR transcriptional activity in AR-positive human VCaP cells assessed as decrease in NKX3.1 protein expression at 20 uM after 48 hrs by immunoblot analysis; format: cell-based
[15] = target: T1, Androgen receptor (Homo sapiens); test: Inhibition of R1881-stimulated AR transcriptional activity in AR-positive human VCaP cells assessed as decrease in PSA protein expression at 20 uM after 48 hrs by immunoblot analysis; format: cell-based
VCaP [16] = test: Downregulation of AR protein expression in R1881-stimulated AR-positive human VCaP cells at 20 uM after 48 hrs by immunoblot analysis; format: functional, cell-based
VCaP [17] = test: Induction of apoptosis in R1881-stimulated AR-positive human VCaP cells assessed as PARP cleavage at 20 uM after 24 to 72 hrs by immunoblot analysis; format: functional, cell-based
VCaP [18] = test: Induction of apoptosis in R1881-stimulated AR-positive human VCaP cells assessed as caspase-3/7 activation at 20 uM using Ac-DEVD-AMC as substrate after 24 to 72 hrs by fluorescence based microplate reader analysis; format: functional, cell-based
CWR22R [19] = test: Induction of apoptosis in R1881-activated AR-positive human 22Rv1 cells harboring ARE14 construct assessed as cleaved PARP level at 5 uM after 24 hrs by immunoblot analysis; format: functional, cell-based
CWR22R [20] = test: Antiproliferative activity against AR-positive human 22Rv1 cells harboring ARE14 construct assessed as growth inhibition after 24 hrs by resazurin dye based fluorescence assay; format: functional; details: 22Rv1, 24 h
BJ = test: Antiproliferative activity against human BJ cells assessed as growth inhibition after 24 hrs by resazurin dye based fluorescence assay; format: functional
[21] = target: T1, Androgen receptor (Homo sapiens); test: Inhibition of R1881-stimulated AR transcriptional activity in AR-positive human VCaP cells assessed as NKX3.1 protein expression at 20 uM after 24 hrs by immunoblot analysis; format: cell-based
CWR22R [22] = test: Effect on AR-V7 protein expression in AR-positive human 22Rv1 cells harboring ARE14 construct at 5 uM after 24 hrs by immunoblot analysis; format: functional, cell-based
[23] = target: T1, Androgen receptor (Homo sapiens); test: Inhibition of R1881-stimulated AR transcriptional activity in AR-positive human VCaP cells assessed as PSA protein expression at 20 uM after 24 hrs by immunoblot analysis; format: cell-based
[24] = target: T1, Androgen receptor (Homo sapiens); details: at 10 µM
Description: Inhibition of R1881 induced-AR transcriptional activity in AR-positive human 22Rv1 cells harboring ARE14 construct at 10 uM after 24 hrs by luciferase assay relative to control

GI50 (LNCaP C4-2 [2]): > 40000 nM
GI50 (VCaP [3]): > 40000 nM
GI50 (PC-3 [4]): > 40000 nM
Structure (SMILES): CNC(=O)c1ccc(N2C(=S)N(c3ccc(C#N)c(C(F)(F)F)c3)C(=O)C2(C)C)cc1F [ENZALUTAMIDE]
GI50 (CWR22R [1]): > 40000 nM
viability at 40 µM (CWR22R [5]): 84%
viability at 40 µM (LNCaP C4-2 [6]): 91.5%
viability at 40 µM (VCaP [7]): 61.2%
viability at 40 µM (PC-3 [8]): 74%

GI50 (LNCaP C4-2 [2]): 1700 nM
GI50 (VCaP [3]): 2000 nM
GI50 (PC-3 [4]): > 100000 nM
NKX3.1 protein downregulation (active/not active) [9]: Active
inhibition [10]: Dose-dependent effect
IC50 (Androgen receptor): 315 nM
inhibition [11]: Active
inhibition [12]: Active
inhibition [14]: Active
inhibition [15]: Active
inhibition [21]: inactive
inhibition [23]: inactive
inhibition [24]: 29%
Structure (SMILES): CC(=O)O[C@H]1CC[C@@]2(C)C(=CC[C@@H]3[C@@H]2CC[C@]2(C)c4c(C)nc5[nH]c6ccccc6c5c4C[C@@H]32)C1
GI50 (CWR22R [1]): 1400 nM
inhibition (CWR22R [13]): Active
inhibition (VCaP [16]): Active
Activity (VCaP [17]): Active
Activity (VCaP [18]): Active
Activity (CWR22R [19]): inactive
GI50 (CWR22R [20]): > 50000 nM
GI50 (BJ): > 50000 nM
Activity (CWR22R [22]): inactive
